Columns and labels:
HepG2 cells = assay: In vitro De Novo Lipogenesis (DNL) assay, 13C-acetate incorporation into palmitic acid; type: cell-based; settings: Homo sapiens, 1 hour preincubation, 24 hours with 10 mM 13C-labeled acetate
Method: De Novo Lipogenesis (DNL) was measured in vitro in HepG2 cells by quantifying the incorporation of ^13C-labeled acetate into palmitic acid.
HepG2 cells were plated in growth medium (DMEM (Corning cat #15-018-CM) supplemented with 10% FBS (HyClone cat #SH30071-03), and 1× penicillin, streptomycin, glutamine (Corning cat #30-009-CI)) at 10,000 cells/well in a 384-well cell culture-treated plate (Greiner cat #781091). The cells were then incubated overnight at 37° C., 5% CO2. The next day, the cells were washed twice with sterile DPBS (Corning cat #21-031-CM) and the culture medium was changed to fresh growth medium. The compounds of interest were dosed to cells, followed by a 1 hour incubation at 37° C., 5% CO2. ^13C-labeled acetate (Sigma-Aldrich cat #279315-1G) was added to the culture medium at a concentration of 10 mM and the cells were incubated for 24 hours at 37° C., 5% CO2.
In order to analyze the lipid content of the HepG2 cells, the culture medium was removed and the cells were lysed by adding 30 μL of 0.1 M NaOH. After 5 minutes of incubation at room temperature, 15 μL of cell lysate was transferred to a 384-well deep-well plate (Sigma-Aldrich cat #BR701355-48EA) containing 15 μL of 7.3% KOH in ethanol and mixed. This plate was sealed and incubated at 70° C. for 4 hours to hydrolyze the lipids to free fatty acids. 100 μL of acetonitrile was then added and the plate was spun at 3,700 g for 20 minutes to separate the organic and aqueous phases. 50 μL from the top (organic) phase was transferred to a new 384-well plate (NUNC cat #264573) and the samples were analyzed by mass spectrometry using a RapidFire coupled to a QTOF mass spectrometer. The sum of the area under curve (AUC) for palmitate containing 3 to 7 ^13C was normalized with the AUC of oleate and plotted against compound concentration to determine the potency of ACC inhibitors. […]

[1] = Rat liver/plasma ratio determination; type: in vivo, male Sprague-Dawley (SD) rats; settings: male SD rats, single oral dose 5 mg/kg or 10 mg/kg; for L/P Ratio (2 h): liver to plasma concentration 2 hours after dosing; for L/P Ratio (24 h): liver to plasma concentration 24 hours after dosing
Method: Liver to plasma (L/P) ratios of certain example compounds were determined in male Sprague-Dawley (SD) rats 2 hours and 24 hours after their administration.
The in vivo phases of the rat L/P ratio determinations for example compounds were conducted at Covance Laboratories (Madison, Wis.) or Charles River Laboratories (Worcester, Wash.). Animals were housed and handled in accordance with the Guide for the Care and Use of Laboratory Animals, Institute of Laboratory Animal Resources. The protocols were reviewed and approved by Institutional Animal Care and Use Committees (IACUC). Male Sprague-Dawley (SD) rats weighing approximately 300 g were fasted overnight prior to dosing and up to 4 hours after dosing. Each example compound was dosed at a single dose at 5 mg/kg or 10 mg/kg orally by gavage to male SD rats (n=3 rats/group). The aqueous formulation contained ethyl alcohol and polyethylene glycol 300. Approximately 100 μL plasma and 0.5 g liver samples were collected from each animal either 2 hours or 24 hours after dosing. The liver samples were homogenized by hard tissue homogenizer probes (Omni International, Kennesaw, Ga.) with 4× extraction buffer. For LC-MS/MS analysis, plasma and liver samples were prepared through protein precipitation extraction and analyzed on a Scitex API 5500 or 6500 LC-MS/MS instrument (Applied Biosystems, Foster City, Calif.). Analyte was eluted on a 1.7 μm 50×2.1 mm Acquity UPLC BEH C18 column (Waters, Milford, Mass.) using mobile phase containing 0.1% formic acid and a linear gradient from 55% to 95% acetonitrile at a flow rate of 800 μL/min. A liver/plasma ratio for each compound was calculated using the liver and plasma concentrations at the corresponding time point (2 hours or 24 hours). Noncompartmental pharmacokinetic parameters were calculated using Phoenix 32 (Pharsight Corporation, Mountain View, Calif.).
To assess the liver loading potential of the compounds, rat liver/plasma ratios (Rat L/P Ratio) values were determined for example compounds and are listed below in Table 1 for 2 hour and 24 hour timepoints (Rat L/P Ratio (2h/24h)).

SMILES | EC50 (HepG2 cells) [nM] | L/P Ratio (2 h) [1] | L/P Ratio (24 h) [1]
Cc1c(-c2ncco2)sc2c1c(=O)n(C(C)(C)C(=O)NS(=O)(=O)C1(C)CC1)c(=O)n2C[C@H](O[C@@H]1C[C@H]2CC[C@@H](C1)O2)c1cc(F)ccc1OC(F)F [Example 6, 2-(1-((R)-2-(((1R,3s,5S)-8-oxabicyclo[3.2.1]octan-3-yl)oxy)-2-(2-(difluoromethoxy)-5-fluorophenyl)ethyl)-5-methyl-6-(oxazol-2-yl)-2,4-dioxo-1,4-dihydrothieno[2,3-d]pyrimidin-3(2H)-yl)-2-methyl-N-((1-methylcyclopropyl)sulfonyl)propanamide] | 4.5 | 442 | 1106
COc1ccccc1[C@H](Cn1c(=O)n(C2(C(=O)NS(=O)(=O)C3(C)CC3)CC2)c(=O)c2c(C)c(-c3ncco3)sc21)O[C@@H]1C[C@H]2CC[C@@H](C1)O2 [Example 12, 1-(1-((R)-2-(((1R,3s,5S)-8-oxabicyclo[3.2.1]octan-3-yl)oxy)-2-(2-methoxyphenyl)ethyl)-5-methyl-6-(oxazol-2-yl)-2,4-dioxo-1,4-dihydrothieno[2,3-d]pyrimidin-3(2H)-yl)-N-((1-methylcyclopropyl)sulfonyl)cyclopropane-1-carboxamide] | 1.7 | 145 | 136
COc1ccc(F)cc1[C@H](Cn1c(=O)n(C(C)(C)C(=O)NS(=O)(=O)C2(C)CC2)c(=O)c2c(C)c(-n3nccn3)sc21)O[C@@H]1C[C@H]2CC[C@@H](C1)O2 [Example 20, 2-(1-((R)-2-(((1R,3s,5S)-8-oxabicyclo[3.2.1]octan-3-yl)oxy)-2-(5-fluoro-2-methoxyphenyl)ethyl)-5-methyl-2,4-dioxo-6-(2H-1,2,3-triazol-2-yl)-1,4-dihydrothieno[2,3-d]pyrimidin-3(2H)-yl)-2-methyl-N-((1-methylcyclopropyl)sulfonyl)propanamide] | 0.3 | 2515 | 2914
